Where two headings read alike, the source gives them in different places. One block for each compound: values may come before it.
Key:
[1] = target: T1, F508del CFTR (Homo sapiens, UniProt P13569, DEL508-508); test: F508del CFTR functional rescue (corrector) HS-YFP single-cell assay; assay type: cell-based; conditions: CFBE41o- YFP-F508del cells; for F508del CFTR rescue (corrector) activity: 48 h incubation, 200 nM
T1 construct: expressed in transfected cells; host or cells: CFBE41o- cells overexpressing F508del CFTR and HS-YFP (YFP-H148Q/I152L), a gift from N. Pedemonte, Gaslini Institute
T1 sequence (P13569 with tags, fused parts or gaps DEL508-508): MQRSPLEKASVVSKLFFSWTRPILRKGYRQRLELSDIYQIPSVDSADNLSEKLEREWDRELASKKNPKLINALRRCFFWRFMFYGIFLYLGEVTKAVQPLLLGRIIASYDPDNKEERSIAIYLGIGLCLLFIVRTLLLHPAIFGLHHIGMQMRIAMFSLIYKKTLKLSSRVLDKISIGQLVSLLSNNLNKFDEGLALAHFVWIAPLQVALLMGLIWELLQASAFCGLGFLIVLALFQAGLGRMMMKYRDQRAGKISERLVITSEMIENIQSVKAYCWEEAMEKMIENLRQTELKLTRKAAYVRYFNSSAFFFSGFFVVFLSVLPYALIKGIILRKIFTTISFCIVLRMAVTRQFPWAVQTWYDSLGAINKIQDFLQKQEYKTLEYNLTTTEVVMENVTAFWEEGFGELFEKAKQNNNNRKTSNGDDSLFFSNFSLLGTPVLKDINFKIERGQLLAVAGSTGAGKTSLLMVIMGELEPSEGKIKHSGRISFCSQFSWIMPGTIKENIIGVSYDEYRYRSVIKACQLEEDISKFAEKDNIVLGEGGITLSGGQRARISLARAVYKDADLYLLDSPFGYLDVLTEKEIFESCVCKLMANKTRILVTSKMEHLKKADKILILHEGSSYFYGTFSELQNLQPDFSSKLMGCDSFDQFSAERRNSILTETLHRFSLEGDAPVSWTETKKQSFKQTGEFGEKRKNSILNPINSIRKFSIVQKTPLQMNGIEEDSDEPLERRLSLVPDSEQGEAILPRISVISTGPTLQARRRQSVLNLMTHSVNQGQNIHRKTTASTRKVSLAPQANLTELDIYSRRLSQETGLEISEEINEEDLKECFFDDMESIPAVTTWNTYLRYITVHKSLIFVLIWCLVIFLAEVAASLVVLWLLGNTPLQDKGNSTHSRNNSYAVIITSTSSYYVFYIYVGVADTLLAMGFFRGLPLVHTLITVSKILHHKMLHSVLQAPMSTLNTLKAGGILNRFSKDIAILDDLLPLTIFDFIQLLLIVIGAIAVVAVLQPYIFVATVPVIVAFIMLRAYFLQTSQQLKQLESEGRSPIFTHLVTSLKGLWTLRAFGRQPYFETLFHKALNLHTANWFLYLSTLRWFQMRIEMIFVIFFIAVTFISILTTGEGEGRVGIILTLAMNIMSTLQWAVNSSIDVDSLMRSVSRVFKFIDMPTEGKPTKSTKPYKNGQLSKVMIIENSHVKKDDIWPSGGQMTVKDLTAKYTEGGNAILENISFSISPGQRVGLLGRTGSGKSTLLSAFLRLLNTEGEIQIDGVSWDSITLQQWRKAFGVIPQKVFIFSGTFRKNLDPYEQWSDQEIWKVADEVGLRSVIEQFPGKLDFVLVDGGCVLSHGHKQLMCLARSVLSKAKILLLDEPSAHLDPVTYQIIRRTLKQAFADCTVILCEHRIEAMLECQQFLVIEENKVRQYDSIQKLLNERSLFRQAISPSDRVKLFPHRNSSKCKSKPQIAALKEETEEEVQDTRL
Protocol: To verify the possibility that the title compounds may act as correctors in CFBE41o-, overexpressing F508del and the high sensitivity halide-sensing yellow fluorescent protein (HS-YFP) YFP-H148Q/I152L, we examined the effect of 48 h preincubation with vehicle or the TMA analogs or TMA or VX809 (Lumacaftor), as a positive control.
At the time of the assay, the correction of the F508del-CFTR function was evaluated in single-cell analysis by measuring the decrease in YFP fluorescence after the concomitant addition of extracellular iodide and the activating cocktail (20 μM forskolin and 5 μM VX770), in the presence or absence of the 10 μM CFTR inhibitor, CFTRinh-172. […] At least two derivatives show CFTR activity similar to that of the parent TMA.
The effect of TMA analogs on CFTR function was tested in CFBE41o- overexpressing F508del and the high sensitivity halide-sensing yellow fluorescent protein (HS-YFP) YFP-H148Q/I152L (a generous gift from N. Pedemonte, Gaslini Institute, Genova, Italy). YFP CF cells were seeded on round glass coverslips and preincubated for 48 h with vehicle or test compounds or VX809 or TMA. At the time of the assay, cells were washed in Dulbecco’s PBS (in mM: 137 NaCl, 2.7 KCl, 8.1 Na2HPO4, 1.5 KH2PO4, 1 CaCl2, and 0.5 MgCl2, pH 7.4) and subsequently incubated with a stimulation cocktail (20 μM forskolin and 5 μM VX770) in the presence and absence of 10 μM CFTR inhibitor, CFTRInh-172 (Sigma), for 30 min. The coverslips were then transferred on a Nikon TMD inverted microscope through a Nikon Fluor 40 objective. The signal was acquired with a Hamamatsu C2400–97 charge-coupled intensified video camera at a rate of 1 frame/3 s. The fluorescence coming from every single cell was analyzed by custom software (Spin, Vicenza, Italy). The results are presented as transformed data to obtain the percentage signal variation (Fx) relative to the time of addition of the stimulus, according to the equation: Fx = ([Ft − Fo]/Fo) × 100, where Ft and Fo are the fluorescence values at time t and at the time of stimulus addition, respectively. The assay of each sample consists of a continuous 99-s fluorescence reading with 30 s before and 69 s after injection of the iodide-rich Dulbecco’s PBS (in mM: 137 NaI, 2.7 KCl, 8.1 Na2HPO4, 1.5 KH2PO4, 1 CaCl2, and 0.5 MgCl2, pH 7.4) to reach a final iodide concentration of 50 mM [20]. The different sensitivity of HS-YFP toward iodide and chloride allows assays to be performed by measuring the transport of anions through the plasma membrane as changes in cell fluorescence. For this assay, cells expressing HS-YFP are equilibrated in a physiological chloride-rich saline solution (e.g., Dulbecco’s PBS). During fluorescence reading, cells are exposed to a high concentration of iodide. Iodide influx quenches the cell fluorescence with a rate that depends on the permeability of the cell membrane to halides, and therefore, on the activity of the anion channels or transporters.
Figure 4 Evaluation of different TMA analogs as F508del CFTR correctors in CFBE41o- YFP-F508del cells. Correction of F508del-CFTR function was assessed, in a single cell, by measuring the decrease in YFP fluorescence upon addition of extracellular iodide and with the activating cocktail, in the presence or absence of CFTR inhibitor, CFTRInh-172. Iodide influx was tested under control condition (vehicle) or after 48 h incubation with the correctors 200 nM or 1 μM VX809. The YFP fluorescence decay rate was calculated by fitting the fluorescence data with an exponential function of time courses. CFTR activity was obtained by the difference between the fluorescence decay rate of YFP in the presence and absence of CFTRInh-172. Fluorescence coming from every single cell of at least five cells per field was recorded. Each bar corresponds to the mean ± SEM of data points coming from at least three different experiments (5–10 different cells/each experiment). […]

[2] = In vivo oral pharmacokinetics in mice; conditions: c57BL/6 male mice
Protocol: The main pharmacokinetic parameters of 4-PhDMA, pANDMA, and pANDMA mesylate were evaluated in c57BL/6 male mice, using water as dispersing vehicle.
All experimental procedures involving animals were conducted in accordance with the 3R principle to minimize their pain and discomfort. […] For the PK analysis, C57Bl6 male mice (n = 3 per time point) were gavaged with selected compounds (20 mg/kg), suspended in water, or dissolved in SEDDS formulations, after an overnight fast. […] 8.0 software (GraphPad Software Inc., San Diego, CA, USA), when appropriate. If not otherwise stated, the PK data are expressed as mean ± SD. p < 0.05 was considered statistically significant.
The TMA analogs were extracted and analyzed from mouse plasma as already reported. Briefly, 100 µL of plasma were treated with 300 µL of cold acetonitrile spiked with 80 nM of internal standard (IS, 6,4′-dimethylangelicin), and then the samples were centrifuged for 10 min at 12,000× g (Hettich Mikro 120 Benchtop Centrifuge) and 25 °C. Ten microliters of the supernatant were injected into the UHPLC system.
The analytical column was a Kinetex 2.6 μm C18 Polar, 100 A, 100 × 2.1 mm (Phenomenex, Bologna, Italy), thermostated at 30 °C. The mobile phase components A and B were water and methanol, respectively, both containing 10 mM ammonium formate. The eluent flow rate was 0.25 mL/min. […] MS data were analyzed using the Mass Hunter Qualitative Analysis software (Agilent Technologies, Palo Alto, CA, USA).
Chromatographic peaks of the TMA analog were identified and integrated by considering the Extracted Ion Chromatogram (EIC) of the [M+H]^+ species selected with a window of 5 ppm and normalized by the IS. Quantification of TMA analogs was carried out by external calibration of normalized signals using a seven-point calibration curve obtained by spiking blank plasma with each TMA analog in the range of 20–3000 nM.

[3] = target: T1, F508del CFTR; set-up: method as in PMID 30022950; conditions: nanomolar concentrations; cited from earlier work
[4] = test system: CFTR in FRT-YFP-G551D cells; set-up: method as in PMID 30022950; conditions: cited from earlier work
[5] = test system: NF-kB/DNA interactions; set-up: method as in PMID 29627723; conditions: cited from earlier work
[6] = set-up: method as in PMID 29627723; conditions: cited from earlier work
[7] = test system: salmon testes DNA; test: Photoadduct formation with DNA under UVA irradiation (TLC analysis); conditions: 15 J/cm2 UVA
Protocol: The total energy that struck the sample was monitored by means of a radiometer (Variocontrol, Waldmann, Villingen-Schwenningen, Germany), equipped with a Variocontrol UV Sensor (Waldmann). The radiant power emitted by the UVA lamp was about […]. The samples were maintained at room temperature during irradiation.
The test compounds were dissolved in ethanol (2 mg/mL) and salmon testes DNA (Sigma-Aldrich) was dissolved in 10 mM NaCl and 1 mM EDTA solution (1.5 × 10^−3 M). Each test solution (250 μL) was added dropwise to the DNA solution (5 mL). The mixture was irradiated with 15 J/cm2 UVA light in a glass dish for 1 h. After irradiation, the DNA was precipitated with 1 M NaCl and two volumes of cold ethanol; the precipitated DNA was collected, washed with 80% ethanol, dried, and then dissolved in water. To obtain hydrolysis, the final solution was acidified with 1 M HCl, heated at 100 °C for 1 h, neutralized with NaOH and extracted three times with chloroform. Then, all of the organic layers were collected, dried under a high vacuum, and dissolved in ethanol. The hydrolyzed mixtures were separated by thin layer chromatography (TLC; F254 plates, 0.25 mm, Merck, Darmstadt, Germany) eluting with EtOAc/EtOH (9:1). The plates were analyzed with a Mineral Light Lamp VL-4LC VILBERT-LOURMAT (Vilber, Marne-la-Vallée, France).

[8] = test system: HepG2 cells; test: Cytotoxicity MTT assay on HepG2 cells; conditions: HepG2, 24 h, highest concentration tested (50 μM)
Protocol: The potential toxicity of TMA analogs on hepatic tissue was assessed by evaluating the viability of HepG2 cells (ATCC, HB-8065) using the MTT assay, as previously reported [22]. Cells were maintained in DMEM complete medium (10% FBS, 1% l-glutamine and 1% PEN-STREP) and seeded in a 96-well plate (5 × 10^4 cells/mL). They were treated for 24 h with TMA analogs (concentration range from 3.125 μM to 50 μM). At the end of the treatment, cells were washed and an MTT solution (0.5 mg/mL in complete medium) was added to each well and incubated for 4 h at 37 °C. The solution was discarded, and the produced blue formazan crystals were dissolved with acidified isopropanol (2% HCl). Absorbance was measured at 570 nm using a multiplate reader (Victor Nivo, Perkin Elmer). The percentage of viable cells was calculated considering untreated cells as control.
The data shown in this figure are the results of three independent experiments, each
performed in quadruplicate.

[9] = mouse, plasma, po, 20 mg/kg gavage, in water

Compound: CCc1cc2c(-c3ccccc3)cc(=O)oc2c2c(C)coc12 [4-PhEMA]
- F508del CFTR rescue (corrector) activity [1]: inactive

Compound: Cc1coc2c(-c3ccccc3)cc3c(C4CC4)cc(=O)oc3c12 [CPPhMA]
- F508del CFTR rescue (corrector) activity [1]: inactive

Compound: Cc1coc2c(-c3ccccc3)cc3c(C(C)C)cc(=O)oc3c12 [IPPhMA]
- F508del CFTR rescue (corrector) activity [1]: inactive

Compound: CS(=O)(=O)O.Cc1cc(=O)oc2c1cc(-c1ccc(N)cc1)c1occ(C)c12 [pANDMA mesylate]
- reduction in YFP fluorescence induced by iodide influx compared to vehicle ([1]; 48 h treatment, representative time courses): greater reduction in YFP fluorescence
- AUC 0-inf ([2]; 20 mg/kg gavage, in water): 9.4026 ± 0.7422 µM·h
- CL/F ([2]; 20 mg/kg gavage, in water): 0.0091 ± 0.0002 mL/h/g
- Cmax ([2]; 20 mg/kg gavage, in water): 3870 ± 1070 nM
- Tmax ([2]; 20 mg/kg gavage, in water): 0.375 ± 0.177 h
- t1/2 ([2]; 20 mg/kg gavage, in water): 1.87 ± 0.43 h
- bioavailability relative to pANDMA ([2]; water as vehicle): nearly four-times more bioavailable
- cell viability [8]: greater than 75%

Further lines, with some results ahead:

- CL/F ([2]; 20 mg/kg gavage, in water): 0.0633 ± 0.005 mL/h/g
- oral bioavailability ([2]; water as vehicle): very low
- Cmax [2, 9]: 120 ± 55.3 nM
- half-life [2, 9]: 9.01 ± 1.34 h
- AUC 0-inf ([2]; mouse, plasma, po, 20 mg/kg gavage, in water, read-out: AUC 0-inf): 0.395 ± 0.0987 µM·h
- Tmax ([2]; mouse, plasma, po, 20 mg/kg gavage, in water, read-out: Tmax): 1 h
Compound: CCc1cc2c(C(C)C)cc(=O)oc2c2c(C)coc12 [IPEMA, 4-isopropyl-6-ethyl-4′-methylangelicin]
- rescue of F508del CFTR-dependent chloride efflux [3]: significantly rescued
- potentiation activity of CFTR [4]: maintained the potentiation activity
- inhibitory activity on NF-kB/DNA interactions [5]: TMA-like inhibitory activity
- mutagenicity and DNA damaging properties [6]: lacking mutagenicity and DNA damaging properties

- F508del CFTR rescue (corrector) activity [1]: inactive
Compound: Cc1cc(=O)oc2c1cc(-c1ccncc1)c1occ(C)c12 [PyDMA]

- photoadduct formation with DNA upon UVA irradiation [7]: showed photoadducts
Compound: Cc1cc(=O)oc2c1cc(C)c1occ(C)c12 [TMA, 4,6,4′-trimethylangelicin, reference compound]

- F508del CFTR rescue (corrector) activity [1]: inactive
Compound: Cc1cc(=O)oc2c1cc(-c1cccs1)c1occ(C)c12 [ThiDMA]

- F508del CFTR rescue (corrector) activity [1]: inactive
Compound: Cc1cc(=O)oc2c1cc(-c1cccc(N)c1)c1occ(C)c12 [mANDMA]
